Measured values taken from ChEMBL document CHEMBL1649312, “Absence of association between piperaquine in vitro responses and polymorphisms in the pfcrt, pfmdr1, pfmrp, and pfnhe genes in Plasmodium falciparum” (Antimicrob Agents Chemother, 2010).
pIC50: −log10 of the molar value.

Assays:
Type in all cases: functional, organism-based
[1] = test system: Plasmodium falciparum; assay: Antimalarial activity against Plasmodium falciparum IMT 9881 harboring Ppcrt I371R mutant gene assessed as incorporation of [3]H hypoxanthine after 48 hrs by scintillation counter; details: IMT 9881, 48 h
[2] = test system: Plasmodium falciparum; assay: Antimalarial activity against Plasmodium falciparum IMT 10336 harboring Pfcrt Q271E mutant gene and Ppcrt I371R mutant gene assessed as incorporation of [3]H hypoxanthine after 48 hrs by scintillation counter; details: IMT 10336, 48 h
[3] = test system: Plasmodium falciparum; assay: Antimalarial activity against Plasmodium falciparum IMT 10354 harboring Ppcrt M74I, N75E, K76T, A220S mutant gene, Pmdr1 D1246Y mutant gene assessed as incorporation of [3]H hypoxanthine after 48 hrs by scintillation counter; details: IMT 10354, 48 h
[4] = test system: Plasmodium falciparum; assay: Antimalarial activity against Plasmodium falciparum IMT 10500 harboring Pfcrt Q271E mutant gene and Ppcrt I371R mutant gene and Pfnhe-1 ms4760 microsatellite mutant assessed as incorporation of [3]H hypoxanthine after 48 hrs by scintillation counter; details: IMT 10500, 48 h
[5] = test system: Plasmodium falciparum; assay: Antimalarial activity against Plasmodium falciparum IMT 16332 harboring Ppcrt M74I, N75E, K76T, A220S, Q271E mutant gene, Pmdr1 N86Y mutant gene assessed as incorporation of [3]H hypoxanthine after 48 hrs by scintillation counter; details: IMT 16332, 48 h
[6] = test system: Plasmodium falciparum; assay: Antimalarial activity against Plasmodium falciparum IMT K14 harboring Ppcrt M74I, N75E, K76T, A220S, Q271E, N326S mutant gene, Pmdr1 Y184F, S1034C, N1042D, D1246Y mutant gene and Pfmrp H191Y and S437A mutant gene assessed as incorporation of [3]H hypoxanthine after 48 hrs by scintillation counter; details: IMT K14, 48 h
[7] = test system: Plasmodium falciparum; assay: Antimalarial activity against Plasmodium falciparum IMT K2 harboring Ppcrt M74I, N75E, K76T, A220S, Q271E, N326S mutant gene, Pmdr1 S1034C, N1042D mutant gene and Pfmrp H191Y and S437A mutant gene assessed as incorporation of [3]H hypoxanthine after 48 hrs by scintillation counter; details: IMT K2, 48 h
[8] = test system: Plasmodium falciparum; assay: Antimalarial activity against Plasmodium falciparum IMT K4 harboring Ppcrt M74I, N75E, K76T, A220S, Q271E, N326S mutant gene, Pmdr1 S1034C, N1042D mutant gene and Pfmrp H191Y and S437A mutant gene assessed as incorporation of [3]H hypoxanthine after 48 hrs by scintillation counter; details: IMT K4, 48 h
[9] = test system: Plasmodium falciparum; assay: Antimalarial activity against Plasmodium falciparum IMT L1 harboring Ppcrt M74I, N75E, K76T, A220S, Q271E mutant gene, Pmdr1 N86Y mutant gene and Pfmrp H191Y and S437A mutant gene assessed as incorporation of [3]H hypoxanthine after 48 hrs by scintillation counter; details: IMT L1, 48 h
[10] = test system: Plasmodium falciparum; assay: Antimalarial activity against Plasmodium falciparum 3D7 assessed as inhibition of [3H] incorporation after 48 hrs by scintillation counter
[11] = test system: Plasmodium falciparum; assay: Antimalarial activity against Plasmodium falciparum W2 assessed as inhibition of [3H] incorporation after 48 hrs by scintillation counter
[12] = test system: Plasmodium falciparum; assay: Antimalarial activity against Plasmodium falciparum FCM29 assessed as inhibition of [3H] incorporation after 48 hrs by scintillation counter
[13] = test system: Plasmodium falciparum; assay: Antimalarial activity against Plasmodium falciparum IMT Bres assessed as inhibition of [3H] incorporation after 48 hrs by scintillation counter
[14] = test system: Plasmodium falciparum; assay: Antimalarial activity against Plasmodium falciparum IMT A4 assessed as inhibition of [3H] incorporation after 48 hrs by scintillation counter
[15] = test system: Plasmodium falciparum; assay: Antimalarial activity against Plasmodium falciparum IMT 31 assessed as inhibition of [3H] incorporation after 48 hrs by scintillation counter
[16] = test system: Plasmodium falciparum; assay: Antimalarial activity against Plasmodium falciparum IMT 10336 assessed as inhibition of [3H] incorporation after 48 hrs by scintillation counter
[17] = test system: Plasmodium falciparum; assay: Antimalarial activity against Plasmodium falciparum IMT 10500 assessed as inhibition of [3H] incorporation after 48 hrs by scintillation counter
[18] = test system: Plasmodium falciparum; assay: Antimalarial activity against Plasmodium falciparum IMT K14 assessed as inhibition of [3H] incorporation after 48 hrs by scintillation counter
[19] = test system: Plasmodium falciparum; assay: Antimalarial activity against Plasmodium falciparum IMT K2 assessed as inhibition of [3H] incorporation after 48 hrs by scintillation counter
[20] = test system: Plasmodium falciparum; assay: Antimalarial activity against Plasmodium falciparum IMT L1 assessed as inhibition of [3H] incorporation after 48 hrs by scintillation counter
[21] = test system: Plasmodium falciparum; assay: Antimalarial activity against Plasmodium falciparum FCM29 harboring Ppcrt M74I, N75E, K76T, A220S, Q271E, N326S and I356T mutant gene, Pmdr1 N86Y mutant gene and Pfmrp H191Y and S437A mutant gene assessed as incorporation of [3]H hypoxanthine after 48 hrs by scintillation counter; details: FCM29, 48 h
[22] = test system: Plasmodium falciparum; assay: Antimalarial activity against Plasmodium falciparum FCR3 harboring Ppcrt M74I, N75E, K76T, A220S, Q271E, N326S and I356T mutant gene, Pmdr1 N86Y mutant gene and Pfmrp H191Y and S437A mutant gene assessed as incorporation of [3]H hypoxanthine after 48 hrs by scintillation counter; details: FCR3, 48 h
[23] = test system: Plasmodium falciparum; assay: Antimalarial activity against Plasmodium falciparum PA harboring Ppcrt M74I, N75E, K76T, A220S, Q271E, N326S and I356T mutant gene, Pmdr1 N86Y mutant gene and Pfmrp H191Y and S437A mutant gene assessed as incorporation of [3]H hypoxanthine after 48 hrs by scintillation counter
[24] = test system: Plasmodium falciparum; assay: Antimalarial activity against Plasmodium falciparum 106/1 harboring Ppcrt M74I, N75E, K76T, A220S, Q271E, N326S and I356T mutant gene, Pmdr1 N86Y mutant gene and Pfmrp H191Y and S437A mutant gene assessed as incorporation of [3]H hypoxanthine after 48 hrs by scintillation counter; details: 106/1, 48 h
[25] = test system: Plasmodium falciparum; assay: Antimalarial activity against Plasmodium falciparum IMT Bres harboring Ppcrt M74I, N75E, K76T, A220S, Q271E, N326S and I356T mutant gene, Pmdr1 N86Y mutant gene and Pfmrp H191Y and S437A mutant gene assessed as incorporation of [3]H hypoxanthine after 48 hrs by scintillation counter
[26] = test system: Plasmodium falciparum; assay: Antimalarial activity against Plasmodium falciparum IMT Guy harboring Ppcrt K76T, A220S, N326D and I371R mutant gene, Pmdr1 […], 1042D and D1246Y, mutant gene and Pfmrp H191Y and S437A mutant gene and Pfnhe-1 ms4760 microsatellite mutant assessed as incorporation of [3]H hypoxanthine after 48 hrs by scintillation counter
[27] = test system: Plasmodium falciparum; assay: Antimalarial activity against Plasmodium falciparum IMT A4 harboring Ppcrt M74I, N75E, K76T, […], Q271E, N326S and I356T mutant gene, Pmdr1 Y184F, N1042D, D1246Y mutant gene assessed as incorporation of [3]H hypoxanthine after 48 hrs by scintillation counter; details: IMT A4, 48 h
[28] = test system: Plasmodium falciparum; assay: Antimalarial activity against Plasmodium falciparum IMT 31 harboring Ppcrt I371R mutant gene assessed as incorporation of [3]H hypoxanthine after 48 hrs by scintillation counter; details: IMT 31, 48 h

Structure (SMILES)	pIC50 [1]	pIC50 [2]	pIC50 [3]	pIC50 [4]	pIC50 [5]	pIC50 [6]	pIC50 [7]	pIC50 [8]	pIC50 [9]	pIC50 [10]	pIC50 [11]	pIC50 [12]	pIC50 [13]	pIC50 [14]	pIC50 [15]	pIC50 [16]	pIC50 [17]	pIC50 [18]	pIC50 [19]	pIC50 [20]	also measured
C[C@H]1[C@@H](O)O[C@@H]2O[C@@]3(C)CC[C@H]4[C@H](C)CC[C@@H]1[C@@]24OO3 [ARTENIMOL]	8.46	8.80	9.40	8.48	8.96	8.68	8.92	8.47	9.05	8.55	8.52	8.89	8.85	8.82	8.77	8.80	8.48	8.68	8.92	9.05	pIC50 [21]: 8.89; pIC50 [22]: 8.80; pIC50 [23]: 8.85; pIC50 [24]: 8.24; pIC50 [25]: 8.85; pIC50 [26]: 8.74; pIC50 [27]: 8.82; pIC50 [28]: 8.77
Clc1ccc2c(N3CCN(CCCN4CCN(c5ccnc6cc(Cl)ccc56)CC4)CC3)ccnc2c1 [PIPERAQUINE]	7.25	7.13	7.54	7.09	7.32	7.21	7.08	7.19	7.33	7.24	7.28	7.01	7.34	7.12	7.32	7.13	7.09	7.21	7.08	7.33	pIC50 [21]: 7.01; pIC50 [22]: 7.28; pIC50 [23]: 7.10; pIC50 [24]: 7.16; pIC50 [25]: 7.34; pIC50 [26]: 7.20; pIC50 [27]: 7.12; pIC50 [28]: 7.32
